Reference: patent US20230167088A1, “1-PYRAZINYLPYRAZOLYL-3-OXYALKYL ACIDS AND THEIR DERIVATIVES, AND THEIR USE FOR CONTROL OF UNDESIRED PLANT GROWTH” (BAYER AKTIENGESELLSCHAFT, priority 2020, published 2023)

How the values were obtained:
PHBPU [1] = experiment: Herbicidal post-emergence action 1a (greenhouse pots, visual rating); assay type: in vivo, Pharbitis purpurea; conditions: visual rating about 3 weeks after treatment
Method in brief: (§1)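 Visual scoring versus untreated plants (100% = plants dead, 0% = as control) followed roughly 3 weeks in the greenhouse after treatment. Plants grown in sandy loam pots had been sprayed on green parts at the one-leaf stage, 2–3 weeks post-sowing, with aqueous WP/EC preparations containing 0.5% additive, 600 l/ha, at 320 and/or 80 g/ha.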

AVEFA [2] = experiment: as above; assay type: in vivo, Avena fatua; conditions: rated visually about 3 weeks after treatment, 100% = plants have died, 0% = like control plants
Method in brief: as §1

MATIN = experiment: Herbicidal pre-emergence action 2a (greenhouse pots, visual scoring); assay type: in vivo, Matricaria inodora; conditions: dosage 320 g/ha, visual scoring after about 3 weeks vs untreated controls
Method in brief: (§2)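 Pre-emergence soil-surface spray: WP/EC, 0.5% additive, 600 l/ha water, 320 and/or 80 g/ha. Greenhouse ~3 wk. Visual % damage vs untreated (100% = plants dead, 0% = like control).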

AMARE [3] = experiment: Herbicidal post-emergence action 1a (greenhouse pots, visual rating); assay type: in vivo, Amaranthus retroflexus; conditions: visual rating about 3 weeks after treatment
Method in brief: as §1

LOLRI [4] = experiment: Herbicidal pre-emergence action 2a (greenhouse pots, visual scoring); assay type: in vivo, Lolium rigidum; conditions: dosage 320 g/ha, visual scoring after about 3 weeks vs untreated controls
Method in brief: as §2

AVEFA [5] = experiment: as above; assay type: in vivo, Avena fatua; conditions: dosage 320 g/ha, visual scoring after about 3 weeks
Method in brief: as §2

PHBPU [6] = experiment: as above; assay type: in vivo, Pharbitis purpurea; conditions: dosage 320 g/ha, visual scoring after about 3 weeks vs untreated controls
Excerpt: (§3) [table] a) Seeds of monocotyledonous and dicotyledonous weed plants and crop plants are placed in plastic or organic plant pots and covered with soil. The compounds of the invention, formulated in the form of wettable powders (WP) or as emulsion concentrates (EC), are then applied onto the surface of the covering soil as aqueous suspension or emulsion with addition of 0.5% additive at a water application rate of 600 1/ha (converted). After the treatment, the pots are placed in a greenhouse and kept under good growth conditions for the trial plants. After about 3 weeks, the effect of the preparations is scored visually in comparison with untreated controls as percentages. For example, 100% activity=the plants have died, 0% activity=like control plants. Tables B1 to B15 below show the effects of selected compounds of the general formula (I) according to Tables 1 and 2 on various harmful plants and an application rate corresponding to 320 g/ha and/or 80 g/ha, which were obtained by the experimental procedure mentioned above.

LOLRI [7] = experiment: Herbicidal post-emergence action 1a (greenhouse pots, visual rating); assay type: in vivo, Lolium rigidum; conditions: rated visually about 3 weeks after treatment, 100% = plants have died, 0% = like control plants
Method in brief: as §1

ECHCG [8] = experiment: as above; assay type: in vivo, Echinochloa crus-galli; conditions: Dosage 320 g/ha; rated visually about 3 weeks after treatment; 100% = plants have died, 0% = like control plants
Protocol: (§4) [table] a) Seeds of monocotyledonous and dicotyledonous weeds and crop plants are placed in sandy loam in plastic or organic plant pots, covered with soil and cultivated in a greenhouse under controlled growth conditions. 2 to 3 weeks after sowing, the test plants are treated at the one-leaf stage. The compounds of the invention, formulated in the form of wettable powders (WP) or as emulsion concentrates (EC), are then sprayed onto the green parts of the plants as aqueous suspension or emulsion with addition of 0.5% additive at a water application rate of 600 1/ha (converted). After the test plants have been kept in the greenhouse under optimum growth conditions for about 3 weeks, the activity of the preparations is rated visually in comparison to untreated controls. For example, 100% activity=the plants have died, 0% activity=like control plants. Tables A1 to A15 below show the effects of selected compounds of the general formula (I) according to Tables 1 and 2 on various harmful plants and an application rate corresponding to 320 g/ha and/or 80 g/ha, which were obtained by the experimental procedure mentioned above.

POLCO [9] = experiment: Herbicidal pre-emergence action 2a (greenhouse pots, visual scoring); assay type: in vivo, Polygonum convolvulus; conditions: dosage 320 g/ha, visual scoring after about 3 weeks vs untreated controls
Method in brief: as §2

ALOMY [10] = experiment: Herbicidal post-emergence action 1a (greenhouse pots, visual rating); assay type: in vivo, Alopecurus myosuroides; conditions: rated visually about 3 weeks after treatment, 100% = plants have died, 0% = like control plants
Method in brief: as §1

SETVI [11] = experiment: as above; assay type: in vivo, Setaria viridis; conditions: rated visually about 3 weeks after treatment, 100% = plants have died, 0% = like control plants
Method in brief: as §1

SETVI [12] = experiment: Herbicidal pre-emergence action 2a (greenhouse pots, visual scoring); assay type: in vivo, Setaria viridis; conditions: dosage 320 g/ha, visual scoring after about 3 weeks vs untreated controls
Method in brief: as §2

VERPE [13] = experiment: Herbicidal post-emergence action 1a (greenhouse pots, visual rating); assay type: in vivo, Veronica persica; conditions: visual rating about 3 weeks after treatment
Method in brief: as §1

AMARE [14] = experiment: Herbicidal pre-emergence action 2a (greenhouse pots, visual scoring); assay type: in vivo, Amaranthus retroflexus; conditions: dosage 320 g/ha, visual scoring after about 3 weeks vs untreated controls
Method in brief: as §2

ABUTH = experiment: Herbicidal post-emergence action 1a (greenhouse pots, visual rating); assay type: in vivo, Abutilon theophrasti; conditions: visual rating about 3 weeks after treatment
Method in brief: as §1

ALOMY [15] = experiment: Herbicidal pre-emergence action 2a (greenhouse pots, visual scoring); assay type: in vivo, Alopecurus myosuroides; conditions: dosage 320 g/ha, visual scoring after about 3 weeks
Method in brief: as §2

VERPE [16] = experiment: as above; assay type: in vivo, Veronica persica; conditions: dosage 320 g/ha, visual scoring after about 3 weeks vs untreated controls
Method in brief: as §2

ECHCG [17] = experiment: as above; assay type: in vivo, Echinochloa crus-galli; conditions: dosage 320 g/ha, visual scoring after about 3 weeks
Excerpt: as §3

DIGSA [18] = experiment: as above; assay type: in vivo, Digitaria sanguinalis; conditions: dosage 320 g/ha, visual scoring after about 3 weeks
Excerpt: as §3

VIOTR [19] = experiment: Herbicidal post-emergence action 1a (greenhouse pots, visual rating); assay type: in vivo, Viola tricolor; conditions: visual rating about 3 weeks after treatment
Method in brief: as §1

harmful plants [20] = experiment: Herbicidal post-emergence action 1a, summary across species; assay type: in vivo; conditions: Tables A1 to A15 (320 g/ha and/or 80 g/ha)
Protocol: as §4, with “a)” for “[table] a)”, “plants.” for “plants. Tables A1 to A15 below show the effects of selected compounds of the general formula (I) according to Tables 1 and 2 on various harmful plants and an application rate corresponding to 320 g/ha and/or 80 g/ha, which were obtained by the experimental procedure mentioned above.”
Tables A1 to A15 below show the effects of selected compounds of the general formula (I) according to Tables 1 and 2 on various harmful plants and an application rate corresponding to 320 g/ha and/or 80 g/ha, which were obtained by the experimental procedure mentioned above.
For example, compound nos. I-05, I-07, I-08, I-10, I-12, I-16, I-17, I-22, I-36, I-37, I-39 and I-40 in the post-emergence method have very good action (80% to 100% herbicidal activity) against harmful plants such as Alopecurus myosuroides, Amaranthus retroflexus, Avena fatua, Lolium rigidum, Polygonum convolvulus, Setaria viridis, Veronica persica and Viola tricolor at an application rate of 0.32 kg of active substance per hectare.

DIGSA [21] = experiment: Herbicidal post-emergence action 1a (greenhouse pots, visual rating); assay type: in vivo, Digitaria sanguinalis; conditions: rated visually about 3 weeks after treatment, 100% = plants have died, 0% = like control plants
Protocol: as §4

VIOTR [22] = experiment: Herbicidal pre-emergence action 2a (greenhouse pots, visual scoring); assay type: in vivo, Viola tricolor; conditions: dosage 320 g/ha, visual scoring after about 3 weeks vs untreated controls
Method in brief: as §2

harmful plants [23] = experiment: Herbicidal pre-emergence action 2a, summary across species; assay type: in vivo; conditions: Tables B1 to B15 (320 g/ha and/or 80 g/ha)
Excerpt: as §3, with “a)” for “[table] a)”, “plants.” for “plants. Tables B1 to B15 below show the effects of selected compounds of the general formula (I) according to Tables 1 and 2 on various harmful plants and an application rate corresponding to 320 g/ha and/or 80 g/ha, which were obtained by the experimental procedure mentioned above.”
Tables B1 to B15 below show the effects of selected compounds of the general formula (I) according to Tables 1 and 2 on various harmful plants and an application rate corresponding to 320 g/ha and/or 80 g/ha, which were obtained by the experimental procedure mentioned above.
For example, compound nos. I-07, I-08, I-11, I-12, I-13, I-16, I-17, I-20, I-36, I-37, I-39, I-45, I-46, I-48, I-52 and I-53 in the pre-emergence method have very good action (80% to 100% herbicidal activity) against harmful plants such as Alopecurus myosuroides, Amaranthus retroflexus, Digitaria sanguinalis, Lolium rigidum, Polygonum convolvulus, Setaria viridis, Veronica persica and Viola tricolor at an application rate of 0.32 kg of active substance per hectare.

POLCO [24] = experiment: Herbicidal post-emergence action 1a (greenhouse pots, visual rating); assay type: in vivo, Polygonum convolvulus; conditions: dosage 320 g/ha, visual rating about 3 weeks after treatment
Method in brief: as §1

SMILES	Post-emergence action against AVEFA in % (AVEFA [2]; Dosage 80 g/ha) [%]	Post-emergence action against AVEFA in % (AVEFA [2]; Dosage 320 g/ha) [%]	Post-emergence action against AMARE in % (AMARE [3]; dosage 80 g/ha) [%]	Post-emergence action against AMARE in % (AMARE [3]; dosage 320 g/ha) [%]	Pre-emergence action against LOLRI in % (LOLRI [4]) [%]	Pre-emergence action against AVEFA in % (AVEFA [5]) [%]	Post-emergence action against LOLRI in % (LOLRI [7]; Dosage 320 g/ha) [%]	Post-emergence action against ECHCG in % (ECHCG [8]) [%]	Pre-emergence action against POLCO in % (POLCO [9]) [%]	Post-emergence action against ALOMY in % (ALOMY [10]; Dosage 320 g/ha) [%]	Post-emergence action against SETVI in % (SETVI [11]; Dosage 320 g/ha) [%]	Pre-emergence action against SETVI in % (SETVI [12]) [%]	Post-emergence action against VERPE in % (VERPE [13]; dosage 320 g/ha) [%]	Pre-emergence action against AMARE in % (AMARE [14]) [%]	Post-emergence action against ABUTH in % (ABUTH; dosage 80 g/ha) [%]	Post-emergence action against ABUTH in % (ABUTH; dosage 320 g/ha) [%]	Pre-emergence action against ALOMY in % (ALOMY [15]) [%]	Pre-emergence action against VERPE in % (VERPE [16]) [%]	Pre-emergence action against ECHCG in % (ECHCG [17]) [%]	further results
O=C(O)COc1nn(-c2cnccn2)c(-c2cncc(F)c2)c1Br [Example I-93]	100	100	90	90	100	100	90	90	100	100	90	100	80	100	80	80	90	100	100	Post-emergence action against PHBPU in % (PHBPU [1]; dosage 80 g/ha): 90%; Post-emergence action against PHBPU in % (PHBPU [1]; dosage 320 g/ha): 90%; Pre-emergence action against MATIN in % (MATIN): 100%; Pre-emergence action against PHBPU in % (PHBPU [6]): 100%; Post-emergence action against SETVI in % (SETVI [11]; Dosage 80 g/ha): 90%; Post-emergence action against VERPE in % (VERPE [13]; dosage 80 g/ha): 80%
COC(=O)[C@@H](C)Oc1nn(-c2cnccn2)c(-c2ccc(F)nc2)c1Br [Example I-17]	90	100	80	80	100	100	90	90	90	100	80	100	90	100	80	80	100	100	100	Pre-emergence action against DIGSA in % (DIGSA [18]): 100%; Post-emergence action against VIOTR in % (VIOTR [19]; dosage 80 g/ha): 90%; Post-emergence action against VIOTR in % (VIOTR [19]; dosage 320 g/ha): 90%; Post-emergence action against LOLRI in % (LOLRI [7]; Dosage 80 g/ha): 90%; herbicidal efficacy against harmful plants in the case of post-emergence treatment (in words) (harmful plants [20]): good herbicidal efficacy; Post-emergence action against ALOMY in % (ALOMY [10]; Dosage 80 g/ha): 100%; Post-emergence action against DIGSA in % (DIGSA [21]; Dosage 80 g/ha): 80%; Post-emergence action against DIGSA in % (DIGSA [21]; Dosage 320 g/ha): 90%; Pre-emergence action against VIOTR in % (VIOTR [22]): 100%; herbicidal efficacy against harmful plants in the case of pre-emergence treatment (in words) (harmful plants [23]): good herbicidal efficacy; Post-emergence action against POLCO in % (POLCO [24]): 90%
